In publication PMC6271101, “Antioxidant, 5-Lipoxygenase Inhibitory and Cytotoxic Activities of Compounds Isolated from the Ferula lutea Flowers” (Molecules, 2014):
“And” between values parts separate entries of the source, which are not always exact repeats. Equal entries are not always repeated. Where two headings read alike, the source gives them in different places.

Columns and labels:
[1] = DPPH free radical scavenging test; details: mean ± SD of three measurements; read-out: IC50 (µmol/L) DPPH Assay
Procedure: The antioxidant activity of compounds was assessed according to their DPPH scavenging ability as described by Khlifi et al., [33] with some modifications. Reaction mixtures, containing 0.1 mL of the relevant compounds solution in methanol, with concentrations ranging 3 mg/mL and 0.1 mL of a 0.2 mM DPPH methanolic solution, were added to 96-well microtiter plates and incubated at 25 °C for 30 min. Absorbances were measured at 520 nm, the wavelength of maximum absorbance of DPPH, were recorded as A(sample). A blank experiment was also carried out applying the same procedure to a solution without the test material and the absorbance was recorded as A(blank).
Ascorbic acid was used as a standard. All measurements were performed in triplicate.

[2] = ABTS radical-scavenging test; details: mean ± SD of three measurements; read-out: IC50 (µmol/L) ABTS+ Assay
Procedure: The radical scavenging capacity of the samples for the ABTS (2,2′-azinobis-3-ethylbenzothiazoline-6-sulphonate) radical cation was determined as described by Khlifi et al., [33] with some modifications. ABTS was generated by mixing a 7 mM of ABTS at pH 7.4 (5 mM NaH2PO4, 5 mM Na2HPO4 and 154 mM NaCl) with 2.5 mM potassium persulfate (final concentration) followed by storage in the dark at room temperature for 16 h before use. The mixture was diluted with ethanol to give an absorbance of 0.70 ± 0.02 units at 734 nm using spectrophotometer. For each sample, diluted solution (20 μL) was allowed to react with fresh ABTS solution (180 μL), and then the absorbance was measured 6 min after initial mixing. […] The capacity of free radical scavenging IC50 was determined using the same previously used equation for the DPPH method. All measurements were performed in triplicate.

5-lipoxygenase = molecular target: T1, 5-lipoxygenase (Glycine max, UniProt P08170); experiment: 5-Lipoxygenase inhibitory assay (linoleic acid, 234 nm); assay type: biochemical, Soybean; details: for inhibition at 80 µM: read-out: 5-Lipoxygenase Inhibitory (% at 80 µmol/L)
T1 sequence (P08170 1-839): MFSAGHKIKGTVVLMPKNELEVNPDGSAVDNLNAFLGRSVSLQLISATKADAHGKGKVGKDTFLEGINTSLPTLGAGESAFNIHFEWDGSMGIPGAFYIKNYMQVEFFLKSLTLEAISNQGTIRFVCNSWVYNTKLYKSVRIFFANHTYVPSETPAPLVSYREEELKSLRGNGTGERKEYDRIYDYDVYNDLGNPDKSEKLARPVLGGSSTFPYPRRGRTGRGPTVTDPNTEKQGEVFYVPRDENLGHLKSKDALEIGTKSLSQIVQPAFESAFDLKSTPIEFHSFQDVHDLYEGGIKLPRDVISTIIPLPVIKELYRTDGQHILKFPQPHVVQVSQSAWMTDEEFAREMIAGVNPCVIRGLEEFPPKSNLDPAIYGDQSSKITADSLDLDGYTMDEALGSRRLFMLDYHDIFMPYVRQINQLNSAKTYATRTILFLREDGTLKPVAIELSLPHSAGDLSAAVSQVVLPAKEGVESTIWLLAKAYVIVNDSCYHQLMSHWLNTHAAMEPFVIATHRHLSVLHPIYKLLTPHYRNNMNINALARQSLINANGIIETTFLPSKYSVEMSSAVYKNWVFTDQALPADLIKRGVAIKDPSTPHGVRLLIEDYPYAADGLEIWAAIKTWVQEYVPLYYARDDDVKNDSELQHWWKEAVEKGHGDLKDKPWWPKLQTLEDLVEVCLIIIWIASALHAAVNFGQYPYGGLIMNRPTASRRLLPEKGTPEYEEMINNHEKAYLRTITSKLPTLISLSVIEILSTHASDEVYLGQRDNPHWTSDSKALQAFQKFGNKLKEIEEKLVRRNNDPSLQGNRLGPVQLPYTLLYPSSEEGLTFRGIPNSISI
Procedure: The anti-inflammatory activity activities of the isolates was determined on Soybean lipoxygenase as described by Khlifi et al. with some modifications. 20 µL of each compound was mixed individually with 150 µL sodium phosphate buffer (pH 7.4) containing 20 µL of 5-lipoxygenase and 60 µL of linoleic acid (3.5 mM), yielding a final volume of 250 µL. […] The mixture was incubated at 25 °C for 10 min, and the absorbance was determined at 234 nm. The absorption change with the conversion of linoleic acid to 13-hydroperoxyoctadeca-9,11-dienoate (characterized by the appearance of the conjugated diene at 234 nm) was followed for 10 min at 25 °C. […] All measurements were performed in triplicate.

[3] = MTT cytotoxicity assay, HCT-116; assay type: cell-based; details: human, HCT-116 colon carcinoma cells; HCT-116, MTT; read-out: Cytotoxic Activity (IC50 µmol/L) HCT-116
Procedure: (§1) The human cancer cell line was used for cytotoxic assay: (HCT-116, IGROV-1 and OVCAR-3). The cells were grown in RPMI-1640 medium supplemented with 10% faetal calf serum (Gibco, Langley, OK, USA), air and 5% CO2. The isolate was added to a medium containing 1 × 10^6 cells/mL, 2 mM L-glutamine and 50 μg/mL gentamycin, and kept at 37 °C in a fully humidified atmosphere. After 18 h of incubation at 37 °C in 5% CO2 incubator, the tubes were centrifuged at 8000 g for 10 min. The supernatant was decanted, and the pellets taken and washed with 20 mM of phosphate buffered saline solution. Each pellet was dissolved in 100 μL (2 mg/mL) MTT solution in a tube, incubated at 22 °C for 4 h and centrifuged at 8000 g for 10 min. All the pellets were dissolved in 500 μL DMSO and read spectrophotometrically at 500 nm. IC50 was calculated by nonlinear regression analysis. Doxorubicin (HCT116) and tamoxifen (IGROV-1 and OVCAR-3) were used as positive control.

[4] = MTT cytotoxicity assay, IGROV-1; assay type: cell-based; details: human, IGROV-1 ovary cells; IGROV-1, MTT; read-out: Cytotoxic Activity (IC50 µmol/L) IGROV-1
Procedure: as §1

[5] = MTT cytotoxicity assay, OVCAR-3; assay type: cell-based; details: human, OVCAR-3 ovary cells; OVCAR-3, MTT; read-out: Cytotoxic Activity (IC50 µmol/L) OVCAR-3
Procedure: as §1

[6] = previously tested, cited from earlier work
[7] = test system: human chronic myelogenous leukemia cell line K562; design: method as in PMID 22913434; details: read-out: IC50 against K562; cited from earlier work
[8] = design: method as in doi:10.1016/j.foodchem.2011.09.005; details: previously tested; read-out: Fe3+ reducing power ability IC50; cited from earlier work
[9] = design: method as in doi:10.1016/j.foodchem.2011.09.005; details: previously tested; read-out: hydrogen peroxide (H2O2) inhibition IC50; cited from earlier work
[10] = test system: 5-lipoxygenase isolated from rat basophilic leukaemia cells (RBL-1); design: method as in doi:10.1016/j.foodchem.2009.09.088; details: at 20 µmol/L; cited from earlier work
liver cell line Hep-G2 = test system: liver cell line Hep-G2; design: method as in PMID 18481014; details: read-out: IC50 against Hep-G2; cited from earlier work
[11] = test system: human promyelocytic leukemia cell HL-60; design: method as in PMID 15387667; details: read-out: IC50 against HL-60; cited from earlier work
[12] = test system: human fibrosarcoma cell line HT-1080; design: method as in PMID 15387667; details: read-out: IC50 against HT-1080; cited from earlier work
[13] = test system: colon cancer cell line LoVo; design: method as in PMID 15387667; details: read-out: IC50 against LoVo; cited from earlier work
LoVo/Doxo = test system: LoVo/Doxo; design: method as in PMID 15387667; details: read-out: IC50 against LoVo/Doxo; cited from earlier work
[14] = read-out: DPPH radical scavenging activity IC50

| Compound | IC50 [1] [µmol/L] | IC50 [2] [µmol/L] | 5-Lipoxygenase Inhibitory (% at 80 µmol/L) (5-lipoxygenase) | inhibition at 80 µM (5-lipoxygenase) [%] | IC50 at 18 h [3] [µmol/L] | IC50 at 18 h [4] [µmol/L] | IC50 at 18 h [5] [µmol/L] | also measured |
| --- | --- | --- | --- | --- | --- | --- | --- | --- |
| CC/C(=C(\c1ccccc1)c1ccc(OCCN(C)C)cc1)c1ccccc1 [Tamoxifen, tamoxifen, reference compound] |  |  |  |  |  | 2 ± 0.1 | 1.3 ± 0.1 |  |
| CC1=CC(=O)C2CC1(O[C@@H]1O[C@H](CO)[C@@H](O)[C@H](O)[C@H]1O)C2(C)C (stereo partly drawn) [Compound 3, Verbenone-5-O-β-D-glucopyranoside] |  |  |  | 12.4 ± 0.8 | > 100 | > 100 | > 100 |  |
| COC(=O)[C@]1(O)C[C@@H](OC(=O)/C=C/c2ccc(O)c(O)c2)[C@@H](O)[C@H](OC(=O)/C=C/c2ccc(O)c(O)c2)C1 [Compound 6, Methyl 3,5-O-Dicaffeoylquinate] | 26.6 ± 1.3 | 20 ± 0.3 |  |  | > 100 | > 100 | > 100 | IC50 (5-lipoxygenase): 5.3 µM and 5.28 µM; IC50 ([6]; read-out: DPPH IC50): 10.3 ± 0.24 µM; IC50 [8]: 270 ± 7.37 µM; IC50 [9]: 316.4 ± 2.86 µM; percent inhibition of 5-lipoxygenase (RBL-1) [10]: 15.1%; IC50 (liver cell line Hep-G2): 72.7 ± 6.2 µM |
| C/C(=C\C(=O)O)CO [Compound 2, 4-Hydroxy-3-methylbut-2-enoic acid] |  |  | did not exhibit activities | 0 | > 100 | > 100 | > 100 |  |
| COc1cccc2c1C(=O)c1c(O)c3c(c(O)c1C2=O)C[C@@](O)(C(=O)CO)C[C@@H]3O[C@H]1C[C@H](N)[C@H](O)[C@H](C)O1 [Doxorubicin, reference compound] |  |  |  |  | 0.18 ± 0.01 |  |  |  |
| C/C(O[C@@H]1O[C@H](CO)[C@@H](O)[C@H](O)[C@H]1O)=C1/C=CC(=O)O1 [Compound 1, (E)-5-Ethylidenefuran-2(5H)-one-5-O-β-D-glucopyranoside] |  |  |  | 16.9 ± 1.2 | > 100 | > 100 | > 100 |  |
| O=C(/C=C/c1ccc(O)c(O)c1)O[C@@H]1C[C@](O)(C(=O)O)C[C@@H](O)[C@H]1O [Compound 4, 5-O-Caffeoylquinic acid] |  |  |  | 17.1 ± 1.1 | > 100 | > 100 | > 100 |  |
| COC(=O)/C=C/c1ccc(O)c(O)c1 [Compound 5, Methyl caffeate] | 39.2 ± 0.5 | 40.8 ± 0.4 | did not exhibit activities | 0 | 22.5 ± 2.4 | 17.8 ± 1.1 | 25 ± 1.1 | IC50 [6, 14]: 14 ± 2.3 µM; IC50 [11]: 7.5 ± 1.6 µM; IC50 [12]: 11.1 ± 3.5 µM; IC50 [13]: 5.8 ± 1.1 µM; IC50 (LoVo/Doxo): ≥ 40 µM |

Second part, led by results:

| IC50 [1] [µmol/L] | IC50 [2] [µmol/L] | 5-Lipoxygenase Inhibitory (% at 80 µmol/L) (5-lipoxygenase) | inhibition at 80 µM (5-lipoxygenase) [%] | Compound | IC50 at 18 h [3] [µmol/L] | IC50 at 18 h [4] [µmol/L] | IC50 at 18 h [5] [µmol/L] | also measured |
| --- | --- | --- | --- | --- | --- | --- | --- | --- |
| > 300 | > 300 | did not exhibit activities | 0 | COc1cc(-c2oc3cc(O)cc(O)c3c(=O)c2O[C@@H]2O[C@H](CO[C@@H]3O[C@@H](C)[C@H](O)[C@@H](O)[C@H]3O)[C@@H](O)[C@H](O)[C@H]2O)ccc1O [Compound 8, Isorhamnetin-3-O-α-L-rhamnopyranosyl(1→6)-β-D-glucopyranoside,narcissin] | > 100 | > 100 | > 100 | DPPH radical scavenging activity [6]: no activity; IC50 [7]: 800 µM |
| 18 ± 0.5 | 19.7 ± 0.7 |  |  | O=C(/C=C/c1ccc(O)c(O)c1)O[C@@H]1C[C@](O)(C(=O)O)C[C@@H](OC(=O)/C=C/c2ccc(O)c(O)c2)[C@H]1O [Compound 7, 3,5-O-Dicaffeoylquinic acid] | > 100 | > 100 | > 100 | IC50 (5-lipoxygenase): 10 ± 0.2 µM; IC50 [6, 14]: 18.2 ± 0.5 µM; percent inhibition of 5-lipoxygenase (RBL-1) [10]: inactive |
|  |  | did not exhibit activities | 0 | Cc1ccc(C)c(C=O)c1C [Compound 11, 2,3,6-Trimethylbenzaldehyde] | > 100 | > 100 | > 100 |  |
|  |  | did not exhibit activities | 0 | CC(C)=CCOc1c2ccoc2cc2oc(=O)ccc12 [Compound 10, Isoimperatorin] | > 100 | > 100 | > 100 |  |
|  |  | did not exhibit activities | 0 | CC(C)(O)[C@@H]1Cc2cc3ccc(=O)oc3cc2O1 [Compound 9, (−)-Marmesin] | 50 ± 4.9 | > 100 | > 100 |  |
| 25 ± 1.1 | 23.3 ± 0.1 |  |  | O=C1O[C@H]([C@@H](O)CO)C(O)=C1O [Vitamin C, ascorbic acid, reference compound] |  |  |  |  |
